Experimental data: the supplement of paper PMC10307832

Tests used:
Assay in all cases: relative viability (nuclei count vs DMSO), 5 days (fraction); higher = more cells survive
[1] = compound: C1=CC2=NC=CN=C2C=C1/C=C/3\C(=O)NC(=O)S3 + CS(=O)(=O)N1CCN(Cc2cc3nc(-c4cccc5[nH]ncc45)nc(N4CCOCC4)c3s2)CC1 [Pictilisib] (partner 1 µM)
Procedure, shortened: (§1)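 Relative viability divides the nuclei count in treated wells by that in vehicle wells. Lung cancer cell lines were seeded in 1536-well plates, dosed by pin tool the next day, and fixed and stained after 5 days in one step with final 0.05% Triton X-100, 1% formaldehyde and 1 ug/ml Hoechst. Dosing was a single drug or a fixed anchor-drug dose plus five library-drug doses (not always all listed) in √10 steps, and values are medians of duplicate plates imaged at 4×.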

BGJ398 + Phenformin = compound: CCN1CCN(c2ccc(Nc3cc(N(C)C(=O)Nc4c(Cl)c(OC)cc(OC)c4Cl)ncn3)cc2)CC1 [BGJ398] + N=C(N)NC(=N)NCCc1ccccc1 [Phenformin] (partner 250 µM)
Procedure, shortened: as §1

[2] = compound: C1=CC2=NC=CN=C2C=C1/C=C/3\C(=O)NC(=O)S3 + NC(=O)Nc1cc(-c2cccc(F)c2)sc1C(=O)N[C@H]1CCCNC1 [AZD7762] (partner 0.2 µM)
Procedure, shortened: as §1

[3] = compound: C1=CC2=NC=CN=C2C=C1/C=C/3\C(=O)NC(=O)S3 + CC(=O)Nc1cccc(-n2c(=O)n(C3CC3)c(=O)c3c(Nc4ccc(I)cc4F)n(C)c(=O)c(C)c32)c1 [Trametinib] (partner 0.02 µM)
Procedure, shortened: as §1

Cell Line	relative viability ([1]; first compound 0.02 µM)	relative viability ([1]; first compound 0.06325 µM)	relative viability ([1]; first compound 0.2 µM)	relative viability ([1]; first compound 0.6325 µM)	relative viability ([1]; first compound 2 µM)	relative viability (BGJ398 + Phenformin; first compound 0.01 µM)	relative viability (BGJ398 + Phenformin; first compound 0.03162 µM)	relative viability (BGJ398 + Phenformin; first compound 0.1 µM)	relative viability (BGJ398 + Phenformin; first compound 0.3162 µM)	relative viability (BGJ398 + Phenformin; first compound 1 µM)	relative viability ([2]; first compound 0.02 µM)	relative viability ([2]; first compound 0.06325 µM)	relative viability ([2]; first compound 0.2 µM)	relative viability ([2]; first compound 0.6325 µM)	relative viability ([2]; first compound 2 µM)	relative viability ([3]; first compound 0.02 µM)	relative viability ([3]; first compound 0.06325 µM)	relative viability ([3]; first compound 0.2 µM)	relative viability ([3]; first compound 0.6325 µM)	relative viability ([3]; first compound 2 µM)
NCI-H650	0.816	0.829	0.917	0.868	0.783	0.419	0.442	0.512	0.458	0.391	0.866	1.06	1.17	0.959	0.69	0.971	0.927	1.3	0.994	0.69
NCI-H1666	0.286	0.39	0.403	0.534	0.327	0.55	0.609	0.622	0.581	0.557	0.748	0.731	0.865	0.827	0.608	0.826	0.813	0.87	0.958	0.696
NCI-H2085	0.417	0.394	0.533	0.455	0.486	0.668	0.663	0.817	0.782	0.807	0.972	0.845	0.958	0.984	0.918	0.477	0.427	0.56	0.511	0.51
NCI-H1734	0.426	–	0.509	0.421	0.274	0.368	0.398	0.408	0.376	0.432	0.579	–	0.586	0.469	0.444	0.645	–	0.802	0.625	0.653
NCI-H2126	0.448	0.56	0.498	0.474	0.411	0.505	0.57	0.541	0.547	0.475	0.886	1.16	0.952	0.937	0.581	0.481	0.591	0.538	0.533	0.48
EMC-BAC-2	0.431	0.552	0.563	0.482	0.463	0.497	0.585	0.558	0.5	0.509	1.11	1.18	1.21	1.08	0.651	0.92	0.944	0.892	0.879	0.713
NCI-H1993	0.811	0.881	0.757	0.878	0.592	0.554	0.485	0.479	0.523	0.575	0.772	0.801	0.963	0.538	0.432	0.516	0.527	0.504	0.452	0.506
NCI-H647	0.546	0.483	0.624	0.368	0.271	0.454	0.514	0.498	0.455	0.411	0.714	0.403	0.572	0.425	0.382	0.459	0.52	0.545	0.444	0.389
